# Reference: US20130196986A1 (priority 2010, published 2013)
# Molecular target: T1, P2X7 receptor (Homo sapiens, UniProt Q99572)
# T1 construct: stably expressing the full length P2X7 receptor; expressed in transfected cells
# T1 sequence (Q99572 1-595): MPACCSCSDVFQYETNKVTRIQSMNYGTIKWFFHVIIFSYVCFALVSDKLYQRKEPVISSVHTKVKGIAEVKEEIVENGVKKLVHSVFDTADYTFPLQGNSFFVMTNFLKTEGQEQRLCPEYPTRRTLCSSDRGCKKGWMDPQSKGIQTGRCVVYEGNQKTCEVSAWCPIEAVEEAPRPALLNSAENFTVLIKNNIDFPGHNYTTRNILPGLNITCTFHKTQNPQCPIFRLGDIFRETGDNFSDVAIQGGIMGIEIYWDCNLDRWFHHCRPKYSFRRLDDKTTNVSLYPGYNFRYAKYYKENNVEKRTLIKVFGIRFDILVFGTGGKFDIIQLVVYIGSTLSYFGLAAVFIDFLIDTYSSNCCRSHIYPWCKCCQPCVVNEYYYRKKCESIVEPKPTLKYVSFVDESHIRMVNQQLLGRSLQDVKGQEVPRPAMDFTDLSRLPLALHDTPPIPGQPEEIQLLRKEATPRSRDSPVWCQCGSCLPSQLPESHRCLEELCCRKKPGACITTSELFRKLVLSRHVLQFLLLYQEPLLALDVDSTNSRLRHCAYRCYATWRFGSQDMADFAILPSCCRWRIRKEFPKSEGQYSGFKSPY
# Experiment: Ca++ flux assay (FLIPR) in P2X7-HEK-293 cell line stably expressing the full length P2X7 receptor, Bz-ATP activation
# Assay type: cell-based
# Settings: P2X7-HEK-293 cells; agonist Bz-ATP; fluorescence as total area over 90 seconds; read-out: P2X7 Ca Flux hu IC50
# Description: The ability of Triazolopyrazinone Compounds to inhibit P2X7 function can be determined in Ca^++ flux assay using a P2X7-HEK-293 cell line stably expressing the full length P2X7 receptor. The assay protocol is as described in Cheewatrakoolpong et al., Biochem. Biophys. Res. Commun. 332:17-27 (2005) with minor modification, and is as summarized hereinafter. Briefly, cells were plated in poly-D-lysine-coated wells, and incubated at 37° C. for 24 hours. Cells were then incubated for 1 hour with a loading buffer which contains a dye sensitive to changes in Ca^++ concentration (lx Calcium Plus no wash dye from Molecular Devices, Sunnyvale, Calif.). The test compounds were added to the wells in the dye loading step. Plates containing the wells were transferred to a Fluorometric Imaging Plate Reader (Molecular Devices, Sunnyvale, Calif.). The cells were activated by the addition of the P2X7 receptor agonist 2′(3) —O-(4-benzoylbenzoyl)adenosine 5′-triphosphate (Bz-ATP from Sigma-Aldrich, St. Louis, Mo.), and the fluorescence was monitored for 90 seconds. The fluorescent signal was determined as the total area over the 90 second run time. Using this protocol, representative Triazolopyrazinone Compounds, compounds 1471 were tested. Tables 3 to 6 show the concentration at which 50% of the maximum response in the Ca^++ was inhibited (IC50) for each of the test compounds.
row,IC50,Structure (SMILES)
1,148 nM,"Cc1c(-n2ccn3c(SCc4ccccc4Cl)nnc3c2=O)cccc1C(F)(F)F [Compound 28, 3-(2-chlorobenzylthio)-7-(2-methyl-3-(trifluoromethyl)phenyl)-[1,2,4]triazolo[4,3-a]pyrazin-8(7H)-one]"
2,3630 nM,"O=c1c2nnc(SCc3ccccc3)n2ccn1-c1cccc2ccccc12 [Compound 29, 3-(benzylthio)-7-(naphthalen-1-yl)-[1,2,4]-triazolo[4,3-a]pyrazin-8(7H)-one]"
3,67 nM,"Cc1c(Cl)cccc1-n1ccn2c(SCc3ccccc3Oc3ccccc3)nnc2c1=O [Compound 30, 7-(3-chloro-2-methylphenyl)-3-(2-phenoxybenzylthio)-[1,2,4]triazolo[4,3-a]pyrazin-8(7H)-one]"
4,1170 nM,"Cc1c(Cl)cccc1-n1ccn2c(SCc3ccccc3N3CCN(C(=O)OC(C)(C)C)CC3)nnc2c1=O [Compound 31, tert-butyl 4-(2-((7-(3-chloro-2-methylphenyl)-8-oxo-7,8-dihydro-[1,2,4]triazolo[4,3-a]pyrazin-3-ylthio)methyl)phenyl)piperazine-1-carboxylate]"
5,553 nM,"Cc1c(Cl)cccc1-n1ccn2c(SCc3ccccc3N3CCOCC3)nnc2c1=O [Compound 32, 7-(3-chloro-2-methylphenyl)-3-(2-morpholinobenzylthio)-[1,2,4]triazolo[4,3-a]pyrazin-8(7H)-one]"
6,85.7 nM,[2H]c1c([2H])c([2H])c(CSc2nnc3c(=O)n(-c4cccc(Cl)c4C)ccn23)c([2H])c1[2H] [Compound 33]
7,148 nM,[2H]c1c([2H])c([2H])c(C([2H])([2H])Sc2nnc3c(=O)n(-c4cccc(Cl)c4C)ccn23)c([2H])c1[2H] [Compound 34]
8,213 nM,"CCc1ccccc1CSc1nnc2c(=O)n(-c3cccc(Cl)c3C)ccn12 [Compound 35, 7-(3-chloro-2-methylphenyl)-3-(2-ethylbenzylthio)-[1,2,4]triazolo[4,3-a]pyrazin-8(7H)-one]"
9,147 nM,"Cc1c(Cl)cccc1-n1ccn2c(SCc3ccccc3-c3cccnc3)nnc2c1=O [Compound 36, 7-(3-chloro-2-methylphenyl)-3-(2-(pyridin-3-yl)benzytthio)-[1,2,4]triazolo[4,3-a]pyrazin-8(7H)-one]"
10,97.4 nM,"Cc1c(Cl)cccc1-n1ccn2c(SCc3ccccc3-c3ccco3)nnc2c1=O [Compound 37, 7-(3-chloro-2-methylphenyl)-3-(2-(furan-2-yl)benzylthio)-[1,2,4]triazolo[4,3-a]pyrazin-8(7H)-one]"
11,1440 nM,"Cc1c(Cl)cccc1-n1ccn2c(SCc3ccccc3Cn3cncn3)nnc2c1=O [Compound 38, 3-(2-((1H-1,2,4-triazol-1-yl)methyl)benzylthio)-7-(3-chloro-2-methylphenyl)-[1,2,4]triazolo[4,3-a]pyrazin-8(7H)-one]"
12,636 nM,"Cc1c(Cl)cccc1-n1ccn2c(SCc3ccccc3CN3CCOCC3)nnc2c1=O [Compound 39, 7-(3-chloro-2-methylphenyl)-3-(2-(rnorpholinornethyl)benzylthio)-[1,2,4]triazolo[4,3-a]pyrazin-8(7H)-one]"
13,45.8 nM,"Cc1c(Cl)cccc1-n1ccn2c(SCc3ccccc3-c3cccs3)nnc2c1=O [Compound 40, 7-(3-chloro-2-methylphenyl)-3-(2-(thiophen-2-yl)benzylthio)-[1,2,4]triazolo[4,3-a]pyrazin-8(7H)-one]"
14,372 nM,"Cc1c(Cl)cccc1-n1ccn2c(SCc3ccccc3C(C)C)nnc2c1=O [Compound 41, 7-(3-chloro-2-methylphenyl)-3-(2-isopropylbenzylthio)-[1,2,4]triazolo[4,3-a]pyrazin-8(7H)-one]"
15,170 nM,"Cc1c(Cl)cccc1-n1ccn2c(SCc3ccccc3COc3ccccc3)nnc2c1=O [Compound 42, 7-(3-chloro-2-methylphenyl)-3-(2-(phenoxymethyl)benzylthio)-[1,2,4]triazolo[4,3-a]pyrazin-8(7H)-one]"
16,233 nM,"Cc1c(Cl)cccc1-n1ccn2c(SCc3ccccc3CS(=O)(=O)c3ccccc3)nnc2c1=O [Compound 43, 7-(3-chloro-2-methylphenyl)-3-(2-(phenylsulfonylmethyl)benzylthio)-[1,2,4]triazolo[4,3-a]pyrazin-8(7H)-one]"
17,553 nM,Cc1c(Cl)cccc1-n1ccn2c(SCc3ccccc3CCc3ccccc3)nnc2c1=O [Compound 44]
18,176 nM,"Cc1c(Cl)cccc1-n1ccn2c(SCc3ccccc3Cc3ccccc3)nnc2c1=O [Compound 45, 3-(2-benzylbenzylthio)-7-(3-chloro-2-methylphenyl)-[1,2,4]triazolo[4,3-a]pyrazin-8(7H)-one]"
19,3500 nM,"Cc1c(Cl)cccc1-n1ccn2c(SCc3cccc(-c4ccccc4)c3)nnc2c1=O [Compound 46, 3-(biphenyl-3-ylmethylthio)-7-(3-chloro-2-methylphenyl)-[1,2,4]triazolo[4,3-a]pyrazin-8(7H)-one]"
20,41.8 nM,"Cc1ccccc1CSc1nnc2c(=O)n(-c3cccc(C(F)(F)F)c3Cl)ccn12 [Compound 47, 7-(2-chloro-3-(trifluorornethyl)phenyl)-3-(2-methylbenzylthio)-[1,2,4]triazolo[4,3-a]pyrazin-8(7H)-one]"
21,17.3 nM,"O=c1c2nnc(SCc3ccccc3-c3ccccc3)n2ccn1-c1cccc(C(F)(F)F)c1Cl [Compound 48, 3-(biphenyl-2-ylmethylthio)-7-(2-chloro-3-(trifluoromethyl)phenyl)-[1,2,4]triazolo[4,3-a]pyrazin-8(7H)-one]"
22,15.9 nM,"Cc1c(-n2ccn3c(SCc4ccccc4-c4ccccc4)nnc3c2=O)cccc1C(F)(F)F [Compound 49, 3-(biphenyl-2-ylmethylthio)-7-(2-methyl-3-(trifluoromethyl)phenyl)-[1,2,4]triazolo[4,3-a]pyrazin-8(7H)-one]"
23,6530 nM,"Cc1c(Cl)cccc1-n1ccn2c(SC(=O)N(C)c3ccccc3)nnc2c1=O [Compound 50, S-7-(3-chloro-2-methylphenyl)-8-oxo-7,8-dihydro-[1,2,4]triazolo[4,3-a]pyrazin-3-yl methyl(phenyl)carbamothioate]"
24,44.2 nM,"Cc1c(-n2ccn3c(SCc4ccccc4OC(F)(F)F)nnc3c2=O)cccc1C(F)(F)F [Compound 51, 7-(2-methyl-3-(trifluorornethyl)phenyl)-3-(2-(trifluoromethoxy)benzylthio)-[1,2,4]triazolo[4,3-a]pyrazin-8(7H)-one]"
25,316 nM,"Cc1c(Cl)cccc1-n1ccn2c(SCc3ccccc3SC(F)(F)F)nnc2c1=O [Compound 52, 7-(3-chloro-2-methylphenyl)-3-(2-(trifluorornethylthio)benzylthio)-[1,2,4]triazolo[4,3-a]pyrazin-8(7H)-one]"
26,994 nM,"Cc1c(Cl)cccc1-n1ccn2c(SCc3ccccc3[N+](=O)[O-])nnc2c1=O [Compound 53, 7-(3-chloro-2-methylphenyl)-3-(2-nitrobenzylthio)-[1,2,4]triazolo[4,3-a]pyrazin-8(7H)-one]"
27,44 nM,"Cc1c(Cl)cccc1-n1ccn2c(SCc3ccccc3-c3ccccc3)nnc2c1=O [Compound 54, 3-(biphenyl-2-ylmethylthio)-7-(3-chloro-2-methylphenyl)-[1,2,4]triazolo[4,3-a]pyrazin-8(7H)-one]"
28,432 nM,"Cc1cccc(CSc2nnc3c(=O)n(-c4cccc(Cl)c4C)ccn23)c1F [Compound 55, 7-(3-chloro-2-methylphenyl)-3-(2-fluoro-3-methylbenzylthio)-[1,2,4]triazolo[4,3-a]pyrazin-8(7H)-one]"
